The source of these data is BindingDB's records for doi:10.7270/Q2B27SQ0 (Nmmlsc, 2008).

What is called EC50 is the concentration at which the effect is half-maximal. A low value points to higher potency in that assay.

Counter-ions that a name gives are not always drawn.

The target in one experiment is Apoptosis regulator Bcl-2 (Homo sapiens, UniProt P10415). Nature of the experiment: PubChem AID 950.
Chain of Apoptosis regulator Bcl-2 (P10415 whole entry): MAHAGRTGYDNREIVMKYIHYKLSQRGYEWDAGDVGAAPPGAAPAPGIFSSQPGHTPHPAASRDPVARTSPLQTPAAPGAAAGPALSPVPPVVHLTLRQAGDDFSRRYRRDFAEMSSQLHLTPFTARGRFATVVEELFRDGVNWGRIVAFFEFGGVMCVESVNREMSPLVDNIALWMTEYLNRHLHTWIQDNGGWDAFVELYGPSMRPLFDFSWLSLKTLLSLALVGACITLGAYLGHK
Conditions: not given
`Nc1c(C(=O)NC2CC2)sc2nc3c(c(-c4ccco4)c12)CC/C3=C/c1ccco1` [SMR000259554] came in with an EC50 of 4.67 µM. Still for that read-out and setting: in the case of `CC(=O)c1ccc(NC(=O)c2ccc3nc(-c4ccco4)c(-c4ccco4)nc3c2)cc1` [N-(4-acetylphenyl)-2,3-di-2-furyl-6-quinoxalinecarboxamide] it was 8.54 µM; in that of `COc1cccc2c(SCC(=O)NN=Cc3ccc(O)cc3O)cc(C)nc12` [N'-[(E)-(2-hydroxy-4-oxo-1-cyclohexa-2,5-dienylidene)methyl]-2-[(8-methoxy-2-methyl-4-quinolinyl)thio]acetohydrazide], 24.1 µM. Same read-out and setting: in the case of `CCC(=O)N(CC)C1C(=O)C(=O)c2ccccc2C1=O` (stereo not given) [N-ethyl-N-(1-hydroxy-3,4-dioxo-2-naphthalenyl)propanamide] it was 0.98 µM. `CN(C)[C@@H]1C(=O)C(C(=O)NCN2CCCC2)C(=O)[C@@]2(O)C(=O)C3C(=O)c4c(O)cccc4[C@@](C)(O)C3CC12` (stereo partly drawn) [(2Z,4S,6S,12aS)-4-(dimethylamino)-6,10,11,12a-tetrahydroxy-2-[hydroxy-(1-pyrrolidinylmethylamino)methylidene]-6-methyl-4,4a,5,5a-tetrahydrotetracene-1,3,12-trione]: the concentration for a half-maximal effect (EC50) turned out to be 23.7 µM. On the same count and under the same terms, the value for `O=C1/C(=C\c2ccc(-c3ccccc3Cl)o2)SC(=S)N1CC1CCCO1` (stereo not given) [(5E)-5-[[5-(2-chlorophenyl)furan-2-yl]methylidene]-3-(oxolan-2-ylmethyl)-2-sulfanylidene-1,3-thiazolidin-4-one] was 2.33 µM; that for `CN1CCc2cccc3c2[C@H]1Cc1ccc(O)c(O)c1-3` [APOMORPHINE HYDROCHLORIDE] was 42.3 µM; that for `C=CCn1c(SCC(=O)Nc2ccc3c(c2)OCO3)nnc1-c1cc(Br)ccc1O` [2-[[(5Z)-4-allyl-5-(3-bromo-6-keto-cyclohexa-2,4-dien-1-ylidene)-1H-1,2,4-triazol-3-yl]thio]-N-(1,3-benzodioxol-5-yl)acetamide] was 15.8 µM.

`COc1ccc2c3c(cccc13)N(C)N=C2C` [MLS000554700] had an EC50 of 2.01 µM. The same measure, in the same setting: in the case of `CCOC(=O)C1CCN(C(=O)Nc2ccc3nc(-c4ccco4)c(-c4ccco4)nc3c2)CC1` [MLS000113285] it was 6.65 µM; in that of `O=C(NCc1ccccc1)c1ccc2nc(-c3ccco3)c(-c3ccco3)nc2c1` [2,3-bis(furan-2-yl)-N-(phenylmethyl)quinoxaline-6-carboxamide], 7.44 µM; in that of `OCCN1CCN(CCCc2c3c(cc4c2CCC4)CCC3)CC1` [MLS000698424], 17.9 µM. Still for that read-out and setting: the value for `Cc1cc(N)ccc1N1CCCC1` [3-methyl-4-(1-pyrrolidinyl)aniline;hydrochloride] was 13.7 µM; that for `COc1cc(CN=Nc2nn3cnnc3c3ccccc23)ccc1O` [(4E)-2-methoxy-4-[[2-([1,2,4]triazolo[3,4-a]phthalazin-6-yl)hydrazinyl]methylidene]cyclohexa-2,5-dien-1-one] was 8.47 µM.

Compound `CCN1/C(=C/C(C)=C/c2sc3ccccc3[n+]2CC)Sc2ccccc21` [SMR000354813] returned an EC50 of 22.4 µM. Same read-out and setting: the value for `COc1cc(/C=C2\CC/C(=C\c3cc(OC)c(O)c(OC)c3)C2=O)cc(OC)c1O` [(2E,5E)-2,5-bis[(4-hydroxy-3,5-dimethoxyphenyl)methylidene]cyclopentan-1-one] was 5.13 µM; that for `COc1ccc(CC(=O)Nc2ccc(-c3nc4cc(C)ccc4o3)c(O)c2)cc1OC` [2-(3,4-dimethoxyphenyl)-N-[(4Z)-3-keto-4-(5-methyl-3H-1,3-benzoxazol-2-ylidene)cyclohexa-1,5-dien-1-yl]acetamide] was 10 µM. Compound `O=C1c2ccccc2-c2onc3ccc(NCCCn4ccnc4)c1c23` [SMR000044769] showed an EC50 of 4.05 µM. As for `Clc1ccc2c(N=NCc3ccccc3Br)ccnc2c1` [MLS000336087], the concentration for a half-maximal effect (EC50) worked out at 9.15 µM. For the compound `Nc1c(C(=O)NCC2CCCO2)sc2nc3c(c(-c4ccco4)c12)CC/C3=C\c1ccco1` (stereo not given) [SMR000259502], the EC50 turned out to be 5.26 µM. `Cc1nc2ncccn2c1-c1csc(Nc2ccc(O)cc2)n1` returned a 50% effective concentration (EC50) of 0.67 µM.

The same experiment, now with this note: inactive by the depositor's call.
For the compound `O=C(c1ccccc1)c1ccc2nc(-c3ccco3)c(-c3ccco3)nc2c1`, the EC50 was found to be 16 µM. The same measure, in the same setting: in the case of `COc1ccc(-n2c(=O)c3ccccc3c3ccccc3c2=O)c(OC)c1` it was 13.4 µM. Still for that read-out and setting: in the case of `COC(=O)CSc1ncnc2c1sc1nc(-c3ccco3)c3c(c12)CC(C)(C)OC3` [MLS000039339] it was 27.6 µM; in that of `c1ccc(C2=Nc3cccc4cccc(c34)N2)cc1`, 26.5 µM.

With `O=C(Nc1ccc2nc(-c3ccco3)c(-c3ccco3)nc2c1)NC1CC1` [SMR000118524], the midpoint of the response, the EC50, lay at 9.26 µM.

Compound `O=C(Nc1ccccc1)c1ccc2nc(-c3ccco3)c(-c3ccco3)nc2c1` [2,3-di-2-furyl-N-phenyl-6-quinoxalinecarboxamide] showed an EC50 of 36.5 µM. The same measure, in the same setting: in the case of `Cc1ccc(C(=O)/C=C/c2ccc(-c3ccc(C)cc3)o2)cc1` [1-p-Tolyl-3-(5-p-tolyl-furan-2-yl)-propenone] it was 3.08 µM; in that of `O=C(NCc1ccccn1)c1ccc2nc(-c3ccco3)c(-c3ccco3)nc2c1` [2,3-di-2-furyl-N-(pyridin-2-ylmethyl)quinoxaline-6-carboxamide], 14.1 µM; in that of `CN1CCN(C2=C(Cl)C(=O)C(c3cnc(N4CCCCC4)s3)=C(Cl)C2=O)CC1`, 0.16 µM. The compound `CN(C)c1ncc(C2=C(Cl)C(=O)C(N3CCCC3)=C(Cl)C2=O)s1` registered an EC50 of 0.21 µM. In turn, `CCN1C(=O)/C(=C/C=C2\C=CN(CC)c3ccccc32)SC1=S` registered an EC50 of 35.3 µM.

In turn, `O=C(Nc1cccc(C(F)(F)F)c1)c1ccc2nc(-c3ccco3)c(-c3ccco3)nc2c1` [SMR000142217] registered a concentration giving a half-maximal response (EC50) of 10.9 µM. Still for that read-out and setting: in the case of `N#Cc1cc(-c2ccccc2)nn1-c1ccccc1` it was 39.6 µM.

On to `Fc1ccc(C2=Nc3cccc4cccc(c34)N2)cc1` [MLS000687139], for which the EC50 is 9.27 µM. Still for that read-out and setting: in the case of `CSc1nnc2c3cc(C)ccc3n(Cc3ccccc3)c2n1` [SMR000046397] it was 29.4 µM; in that of `Clc1nss/c1=N\c1ccc(Br)cc1` [N-(4-bromophenyl)-4-chloro-5-dithiazolimine], 49.8 µM; in that of `c1ccc(Nc2cccc(Nc3ccccc3)n2)cc1` [N,N'-diphenyl-2,6-pyridinediamine], 2.79 µM. The compound `Cc1cccc(OCC(=O)NCC(=O)NN=Cc2cc(Br)ccc2OCc2ccccc2)c1` [N-[(5-bromanyl-2-phenylmethoxy-phenyl)methylideneamino]-2-[2-(3-methylphenoxy)ethanoylamino]ethanamide] had an EC50 of 5.73 µM. The same measure, in the same setting: the value for `COC(=O)c1c(C(=O)OC)c2cccc3cc(-c4ccccc4)c4ccc1c4n32` [SMR000161417] was 1.8 µM; that for `CN(N=Cc1ccncc1)C1=NS(=O)(=O)c2ccccc21` [isonicotinaldehyde (1,1-dioxido-1,2-benzisothiazol-3-yl)(methyl)hydrazone] was 2.44 µM. Still for that read-out and setting: in the case of `Clc1nc(NCc2cccnc2)nc(N2CCOCC2)n1` [MLS000121154] it was 24.9 µM; in that of `CCOC(=O)c1ccc(Nc2nc(C(=O)OCC)nc3ccccc23)cc1`, 1.51 µM; in that of `O=C(NC1=C(NC2CCS(=O)(=O)C2)C(=O)c2ccccc2C1=O)c1ccccc1` (stereo not given) [N-[3-[(1,1-dioxo-3-thiolanyl)amino]-1,4-dioxo-2-naphthalenyl]benzamide], 19.7 µM. Same read-out and setting: in the case of `Cc1cc(C)nc(SCc2cc(=O)c(OC(=O)c3ccc(Cl)c([N+](=O)[O-])c3)co2)n1` [4-chloro-3-nitrobenzoic acid [6-[[(4,6-dimethyl-2-pyrimidinyl)thio]methyl]-4-oxo-3-pyranyl] ester] it was 8.45 µM; in that of `CNc1ccc(Br)cc(C(=O)/C=C/c2cccc(OC)c2)c1=O` [4-bromo-2-[3-(3-methoxyphenyl)acryloyl]-7-(methylamino)-2,4,6-cycloheptatrien-1-one], 55 µM.

On to `CNc1ccc(Br)cc(C(=O)/C=C/c2cc(OC)ccc2OC)c1=O` [SMR000115626], for which the midpoint of the response, the EC50, lay at 8.97 µM.

Compound `COc1ccc2nc(-c3ccco3)c(-c3ccco3)nc2c1` [2,3-di-2-furyl-6-methoxyquinoxaline] showed an EC50 of 14.4 µM. With `COc1cc2nc(=S)[nH]c(NCCc3ccc(S(N)(=O)=O)cc3)c2cc1OC` [MLS000674601], the EC50 came out at 0.54 µM. With `Cc1ccc(C)c(/C=C/C(=O)c2ccccc(=O)c2O)c1`, the response was half-maximal at 19.4 µM (EC50). The same measure, in the same setting: in the case of `CN(C)c1ccc(C=C2C(=O)NC(=O)NC2=O)cc1[N+](=O)[O-]` [5-[[4-(dimethylamino)-3-nitrophenyl]methylidene]-1,3-diazinane-2,4,6-trione] it was 16.4 µM. As to `CCc1ccc(/C=C/C(=O)c2cc(Br)ccc(=O)c2O)cc1` [5-bromo-3-[(E)-3-(4-ethylphenyl)-1-oxoprop-2-enyl]-2-hydroxy-1-cyclohepta-2,4,6-trienone], the 50% effective concentration (EC50) was 76.4 µM. As to `O=C(/C=C\c1ccc(-c2ccccc2)o1)c1ccccc1` [(Z)-1-phenyl-3-(5-phenyl-2-furanyl)-2-propen-1-one], a half-maximal effect (EC50) was put at 34.9 µM. In turn, `CC(C)(C)NC(=O)COc1ccc(CNc2ccc3[nH]c(O)nc3c2)cc1` [N-tert-butyl-2-[4-[[(2-oxidanylidene-1,3-dihydrobenzimidazol-5-yl)amino]methyl]phenoxy]ethanamide] had an EC50 of 4.65 µM. Still for that read-out and setting: in the case of `CCOC(=O)c1nc(Nc2ccc(C(=O)OC)cc2)c2ccccc2n1` [ethyl 4-(4-methoxycarbonylanilino)quinazoline-2-carboxylate] it was 15.2 µM; in that of `C#CCn1cc(C=C2C(=O)c3ccccc3C2=O)c2ccccc21` [SMR000196125], 13.8 µM; in that of `COc1ccc(CCNC(=O)c2ccc3nc(-c4ccco4)c(-c4ccco4)nc3c2)cc1OC` [N-[2-(3,4-dimethoxyphenyl)ethyl]-2,3-di-2-furylquinoxaline-6-carboxamide], 13.6 µM.

Compound `O=C(Nc1ccc(N2CCOCC2)cc1)Nc1ccc2nc(-c3ccco3)c(-c3ccco3)nc2c1` [N-(2,3-di-2-furyl-6-quinoxalinyl)-N'-[4-(4-morpholinyl)phenyl]urea] returned an EC50 of 8.89 µM. Still for that read-out and setting: in the case of `CCN(CC)C(=O)COC(=O)c1cc(-c2ccco2)nc2ccccc12` [SMR000377201] it was 4.95 µM; in that of `COCCCn1c(N)c(C(=O)Nc2sc3c(c2C(=O)OC)CCCC3)c2nc3ccccc3nc21` [MLS000595323], 1.95 µM.
